Experimental data from patent publication US7230011B2, “Benzenesulfonic acid indol-5-yl esters as antagonists of the 5ht6 receptor” (Eli Lilly and Company, priority 2002, dated 2007).
Where two headings read alike, the source gives them in different places.

Columns and labels:
5-HT6 receptor = 5-HT6 receptor (Homo sapiens, UniProt P50406); settings: cited from earlier work; for Ki: 5-HT6 receptor; for affinity for the 5-HT6 receptor: in words
5-HT2A receptor = 5-HT2A receptor (Homo sapiens, UniProt P28223); settings: 5-HT6 versus 5-HT2A; cited from earlier work
Sequence of 5-HT2A receptor (P28223 whole entry): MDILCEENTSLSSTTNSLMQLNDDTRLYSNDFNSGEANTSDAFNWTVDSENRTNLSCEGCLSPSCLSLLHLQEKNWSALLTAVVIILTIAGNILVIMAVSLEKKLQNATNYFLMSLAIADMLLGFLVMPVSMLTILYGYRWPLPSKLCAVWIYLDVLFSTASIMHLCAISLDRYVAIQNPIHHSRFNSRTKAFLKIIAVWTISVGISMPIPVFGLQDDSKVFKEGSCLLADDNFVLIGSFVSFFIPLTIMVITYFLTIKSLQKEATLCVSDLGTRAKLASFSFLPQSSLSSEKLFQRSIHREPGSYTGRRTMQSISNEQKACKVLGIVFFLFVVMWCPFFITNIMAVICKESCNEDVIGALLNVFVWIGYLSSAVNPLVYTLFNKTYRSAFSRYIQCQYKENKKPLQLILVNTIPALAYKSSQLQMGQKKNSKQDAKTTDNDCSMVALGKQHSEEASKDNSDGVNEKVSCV

[1] = cited from earlier work; for pharmacokinetics: in words
yawning behavior = settings: in vivo; cited from earlier work
[2] = test system: glutamate release in the prefrontal cortex; settings: 10 mg/kg, sc; cited from earlier work
Morris water maze = settings: in vivo; cited from earlier work
aged rats = settings: cited from earlier work
stretching behavior = settings: cited from earlier work; for block of stretching behavior induced by Ro 04-6790: methyl-scopolamine at doses known to be peripherally selective
Male Sprague-Dawley rats = settings: s.c., six-hour delay
[3] = test system: rats with unilateral nigrostriatal 6-OH-DA lesions; settings: cited from earlier work
object recognition test = settings: in vivo; cited from earlier work

Sequence of 5-HT6 receptor (P50406 whole entry): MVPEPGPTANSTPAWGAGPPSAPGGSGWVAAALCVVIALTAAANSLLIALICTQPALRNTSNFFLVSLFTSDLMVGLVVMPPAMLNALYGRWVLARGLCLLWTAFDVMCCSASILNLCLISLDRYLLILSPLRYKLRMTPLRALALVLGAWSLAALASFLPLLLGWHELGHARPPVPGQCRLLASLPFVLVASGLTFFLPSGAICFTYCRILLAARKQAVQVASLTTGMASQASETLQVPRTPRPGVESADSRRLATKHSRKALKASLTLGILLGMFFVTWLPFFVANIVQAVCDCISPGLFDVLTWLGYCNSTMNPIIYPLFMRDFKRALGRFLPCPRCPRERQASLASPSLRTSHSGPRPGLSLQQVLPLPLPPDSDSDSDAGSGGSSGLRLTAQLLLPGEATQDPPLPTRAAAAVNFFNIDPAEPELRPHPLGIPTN

**Q.** Which melting point does the source give for `CN1CCC(c2c[nH]c3ccc(OS(=O)(=O)c4ccc(F)c(F)c4F)cc23)CC1` [Example 41, 2,3,4-Trifluorobenzenesulfonic acid 3-(1-methylpiperidin-4-yl)-1H-indol-5-yl ester] here?
**A.** 160 to 162 °C

**Q.** Which melting point does the source give for `CN1CCC(c2c[nH]c3ccc(OS(=O)(=O)c4c(F)cccc4F)cc23)CC1` [Example 42, 2,6-Difluorobenzenesulfonic acid 3-(1-methylpiperidin-4-yl)-1H-indol-5-yl ester] here?
**A.** 214 to 215 °C

**Q.** Which melting point does the source give for `CN1CCC(c2c[nH]c3ccc(OS(=O)(=O)c4ccc([N+](=O)[O-])cc4)cc23)CC1` [Example 43, 4-Nitrobenzenesulfonic acid 3-(1-methylpiperidin-4-yl)-1H-indol-5-yl ester] here?
**A.** 171 to 172 °C

**Q.** With `CN1CCC(c2c[nH]c3ccc(OS(=O)(=O)c4ccccc4)cc23)CC1` [Example 45, Benzenesulfonic acid 3-(1-methylpiperidin-4-yl)-1H-indol-5-yl ester] as the molecule, how does the melting point read?
**A.** 189 to 194 °C

**Q.** With `CN1CCC(c2c[nH]c3ccc(OS(=O)(=O)c4ccc(F)cc4)cc23)CC1` [Example 51, 4-Fluorobenzenesulfonic acid 3-(1-methylpiperidin-4-yl)-1H-indol-5-yl ester] as the molecule, how does the melting point read?
**A.** 170 to 172 °C

**Q.** Which melting point does the source give for `Cc1cc(OS(=O)(=O)c2c(F)cccc2F)cc2c(C3CCN(C)CC3)cn(C)c12` [Example 56, 2,6-Difluorobenzenesulfonic acid 1,7-dimethyl-3-(1-methylpiperidin-4-yl)-1H-indol-5-yl ester] here?
**A.** 139 °C

**Q.** Which melting point does the source give for `Cc1cc(OS(=O)(=O)c2c(F)cccc2F)cc2c(C3CCN(C)CC3)cn(Cc3ccccc3)c12` [Example 59, 2,6-Difluorobenzenesulfonic acid 1-benzyl-7-methyl-3-(1-methylpiperidin-4-yl)-1H-indol-5-yl ester] here?
**A.** 158 °C

**Q.** Which melting point does the source give for `Cc1cc(OS(=O)(=O)c2ccccc2)cc2c(C3CCN(C)CC3)c[nH]c12` [Example 62, Benzenesulfonic Acid 7-methyl-3-(1-methylpiperidin-4-yl)-1H-indol-5-yl Ester] here?
**A.** 118 °C

**Q.** Which melting point does the source give for `Cc1cc(OS(=O)(=O)c2c(Cl)cccc2Cl)cc2c(C3CCN(C)CC3)c[nH]c12` [Example 63, 2,6-Dichlorobenzenesulfonic Acid 7-methyl-3-(1-methylpiperidin-4-yl)-1H-indol-5-yl Ester] here?
**A.** 179 °C

**Q.** Which Ki (5-HT6 receptor) does the source give for `CCc1[nH]c2ccc(OC)cc2c1CCN(C)C` [N,N-dimethyl-2-ethyl-5-methoxytryptamine] here?
**A.** 0.081 µM

**Q.** What about the “selectivity versus the 5-HT2A receptor” value (5-HT2A receptor) of the same molecule?
**A.** 3.5 fold

**Q.** Which Ki (5-HT6 receptor; read-out: Ki) does the source give for `CNc1cc(NS(=O)(=O)c2ccc(N)cc2)cc(NC)n1` [Ro 63-0563] here?
**A.** 0.012 µM

**Q.** What about the pharmacokinetics [1] of the same molecule?
**A.** poor pharmacokinetics

**Q.** For `COc1ccc(NS(=O)(=O)c2sc3ccc(Cl)cc3c2C)cc1N1CCNCC1` [SB-271,046], which bioavailable ([1]; in vivo) is on record?
**A.** 80%

**Q.** And the “yawning behavior induced by physostigmine” value (yawning behavior)?
**A.** potentiated the yawning behavior

**Q.** And the “glutamate release in the prefrontal cortex” value [2]?
**A.** increases glutamate release

**Q.** And the “performance in the Morris water maze” value (Morris water maze)?
**A.** improved performance

**Q.** And the “spatial alternation operant behavior test” value (aged rats)?
**A.** improvements

**Q.** For `CN1[C@@H]2C[C@@H](OC(=O)[C@H](CO)c3ccccc3)C[C@H]1[C@@H]1O[C@@H]12` [Scopolamine, scopolamine], which “block of stretching behavior induced by Ro 04-6790” value (stretching behavior) is on record?
**A.** blocked

**Q.** Which results are given for `Nc1c2c(nc3ccccc13)CCCC2` [Tacrine, tacrine]?
**A.** retention (Male Sprague-Dawley rats; 3 mg/kg): not; retention (Male Sprague-Dawley rats; 10 mg/kg): significantly improved retention

**Q.** Which “block of yawning and stretching behavior induced by antisense oligonucleotides targeting the 5-HT6 receptor” value (stretching behavior; antisense icv to rats) does the source give for `CN1[C@@H]2CC[C@H]1C[C@@H](OC(=O)C(CO)c1ccccc1)C2` (stereo partly shown) [atropine] here?
**A.** blocked

**Q.** And the “block of stretching behavior induced by Ro 04-6790” value (stretching behavior)?
**A.** blocked

**Q.** Which “affinity for the 5-HT6 receptor” value (5-HT6 receptor) does the source give for `O=C(CCCN1CCC(O)(c2ccc(Cl)cc2)CC1)c1ccc(F)cc1` [haloperidol] here?
**A.** do not have significant affinity

**Q.** With `Cc1nc2n(c(=O)c1CCN1CCC(c3noc4cc(F)ccc34)CC1)CCCC2` [risperidone] as the molecule, how does the “affinity for the 5-HT6 receptor” value (5-HT6 receptor) read?
**A.** do not have significant affinity

**Q.** With Ro 04-6790 as the molecule, how does the Ki (5-HT6 receptor; read-out: Ki) read?
**A.** 0.05 µM

**Q.** And the pharmacokinetics [1]?
**A.** poor pharmacokinetics

**Q.** And the stretching behavior (stretching behavior; rat, in vivo)?
**A.** induced stretching behavior in a dose-dependent manner

**Q.** And the “rotational behavior induced by L-DOPA or amphetamine” value ([3]; rat, in vivo)?
**A.** did not block

**Q.** And the “rotation behavior induced by scopolamine” value ([3]; rats, unilateral nigrostriatal 6-OH-DA lesions)?
**A.** block the rotation behavior

**Q.** What about the “scopolamine induced performance deficits in the object recognition test” value (object recognition test) of the same molecule?
**A.** reversed scopolamine induced performance deficits
